In patent US9150590B2, “Process for the synthesis of rifaximin and a new pseudo-crystalline form of rifaximin obtained thereby” (Friulchem Spa, priority 2011, dated 2015):

Test: polymorphic stability on drying or wetting (XRPD, Karl Fischer water content)
Assay type: physicochemical
Conditions: water content between 0.5% and 7% (Karl Fisher)
Source text: Advantageously, the pseudo-crystalline rifaximin is stable at a water content comprised between 0.5% and 7%. In contrast to the rifaximin of the state of the art, transition from one polymorphic form to another is not observed when the water content varies between 0.5% and 7%. […] Water content is typically assessed according to the Karl Fisher method.
In the processes of the present invention, the absence of salts (methylaminopyridine hydrochloride and ascorbic acid salts) and the final pH of the solution yield a pseudo-crystalline form of rifaximin which is stable at various water contents comprised between 0.5% and 7%. This pseudo-crystalline form is stable upon drying or wetting with water and transition between different polymorphic forms depending on the water content is not observed. The rifaximin obtained by the process of the present invention is polymorphically stable.
Advantageously, the X-ray diffractogramm of the rifaximin according to the present invention is not modified when the water content varies between 0.5% and 7%.
The diffractograms have been carried out by using the SIEMENS D5000 instrument and under the following working conditions: • Radiation used: Kα of Copper (λ=1.5406 Å) • Tension of the generator: KV 35 • Current of the generator: 30 mA • Starting and final angular 2θ value: from 2.0° to 60.0°.

Structure (SMILES): CO[C@H]1/C=C/O[C@@]2(C)Oc3c(C)c(O)c4c(O)c(c5c(nc6cc(C)ccn65)c4c3C2=O)NC(=O)/C(C)=C\C=C\[C@H](C)[C@H](O)[C@@H](C)[C@@H](O)[C@@H](C)[C@H](OC(C)=O)[C@@H]1C [pseudo-crystalline rifaximin, rifaximin]
- polymorphic stability (transition to another polymorphic form): stable
